Assays:
human 5-HT4b receptor = molecular target: T1, human 5-HT4b receptor (Homo sapiens, UniProt Q13639); assay: Test Example 4: Serotonin 4 (5-HT4) receptor agonist activity assay, cAMP HTRF in CHO cells (Table 100); type: cell-based; conditions: mean value; for Emax: CHO, 0.25 h, intrinsic activity, maximal activity of 5-HT defined as 100%, read-out: IA (%); for EC50: concentration showing 50% of IA
T1 construct: expressed in transfected cells; host or cells: CHO cells (G418 selection)
How it was run: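 Read-out is HTRF cAMP (time-resolved fluorescence 620/665 nm after 1 h RT with cAMP-cryptate and cAMP-d2), from recombinant CHO cells bearing human 5-HT4b treated with compound 15 min at 31° C. in Hanks/HEPES buffer pH 7.4. IA (%) scaled to peak 5-HT effect over 10^−11–10^−7 M; EC50 is concentration giving half that IA.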

[1] = molecular target: T2, Human 5-HT4 receptor (5-HT4b) (Homo sapiens, UniProt Q13639); assay: Test Example 3: Human 5-HT4 receptor binding assay, membranes of CHO-K1 cells stably expressing 5-HT4b receptors (Table 99); conditions: mean value of each group
T2 construct: expressed in transfected cells; membrane preparation
Method: To an assay tube were added 0.1 nM [^3H]-GR113808 {chemical name: [1-[2-(methylsulfonylamino) ethyl]-4-piperidinyl]methyl 1-methylindole-3-carboxylate}, receptor membrane preparations, and Hepes buffer (50 mM, pH 7.4, 4° C., 1 ml) containing test compounds or 30 μM serotonin; and the mixture was incubated at 37° C. for 30 minutes. On quenching the reaction, the mixture was rapidly filtered on whatman GF/B filter, which was presoaked in 0.1% polyethyleneimine for 1 hour, by using Brandel cell Harvester, and washed with ice-cooled 50 mM Tris-HCl (pH 7.7, 4 ml) three times. To the filter after filtration was added a liquid scintillator (Ecoscint), and then a radioactivity was determined by a liquid scintillation counter.
50% Inhibition concentrations (IC50) were determined from inhibition rates of test compounds to specific bindings which were obtained by subtracting nonspecific bindings from total binding amounts of [^3H]-GR113808.
Human 5-HT4 receptor membrane preparations were prepared from CHO-K^1 cells which stably express 5-HT4b receptors, and human 5-HT4 receptor binding assay was carried out in a similar manner as in the guinea pig 5-HT4 receptor binding assay. The following tables show results of serotonin 4 (5-HT4) receptor binding assay. In the following tables, the compounds used in the test are shown in numbers which correspond to the Example numbers above where the preparations of the compounds are described.

T2 sequence (Q13639 whole entry): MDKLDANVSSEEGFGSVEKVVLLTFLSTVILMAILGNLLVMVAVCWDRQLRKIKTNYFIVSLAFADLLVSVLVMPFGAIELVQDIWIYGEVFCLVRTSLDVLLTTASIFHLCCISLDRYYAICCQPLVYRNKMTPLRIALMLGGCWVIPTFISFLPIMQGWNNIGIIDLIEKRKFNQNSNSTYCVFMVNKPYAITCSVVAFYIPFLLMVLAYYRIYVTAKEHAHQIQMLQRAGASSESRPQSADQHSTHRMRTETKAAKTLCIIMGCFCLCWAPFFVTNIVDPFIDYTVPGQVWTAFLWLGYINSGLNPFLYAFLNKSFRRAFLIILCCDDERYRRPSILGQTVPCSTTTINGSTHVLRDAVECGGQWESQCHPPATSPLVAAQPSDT
T1 sequence (Q13639 whole entry): as above

Row | Emax (human 5-HT4b receptor) [%] | EC50 (human 5-HT4b receptor) [nM] | IC50 [1] [nM] | Compound
1 | 95 | 11.4 | < 20 | CC(C)c1nn(-c2noc(C3CCN(C4CCN(C(=O)CO)CC4(C)C)CC3)n2)c2c(F)cccc12 (stereo not drawn) [Example 531, 1-(4-{3-[7-fluoro-3-(propan-2-yl)-1H-indazol-1-yl]-1,2,4-oxadiazol-5-yl}-3′,3′-dimethyl-1,4′-bipiperidin-1′-yl)-2-hydroxyethanone]
2 | 91 | 4.4 | < 20 | CCc1nn(-c2noc(C3CCN(C4(C)CCN(C(C)=O)CC4)CC3)n2)c2c(F)cccc12 [Example 491, 1-{4-[3-(3-ethyl-7-fluoro-1H-indazol-1-yl)-1,2,4-oxadiazol-5-yl]-4′-methyl-1,4′-bipiperidin-1′-yl}ethanone]
3 | 70 | 2.2 | < 20 | CC(C)c1nn(-c2noc(C[C@H]3CCN(C4CCN(S(C)(=O)=O)CC4)C3)n2)c2c(F)cccc12 [Example 496, 7-fluoro-1-[5-({(3R)-1-[1-(methylsulfonyl)piperidin-4-yl]pyrrolidin-3-yl}methyl)-1,2,4-oxadiazol-3-yl]-3-(propan-2-yl)-1H-indazole]
4 | 99 | 2.7 | < 20 | CC(=O)N1CCC(N[C@H]2C[C@@H](c3nc(-n4nc(C(C)C)c5cccc(F)c54)no3)C2)CC1 [Example 593, 1-{4-[(cis-3-{3-[7-fluoro-3-(propan-2-yl)-1H-indazol-1-yl]-1,2,4-oxadiazol-5-yl}cyclobutyl)amino]piperidin-1-yl}ethanone]
5 | 75 | 7.2 | < 20 | CC(C)c1nn(-c2noc(C[C@@H]3CCN(C[C@@H]4CCN(S(C)(=O)=O)C4)C3)n2)c2c(F)cccc12 [Example 516, 7-fluoro-1-(5-{[(3S)-1-{[(3S)-1-(methylsulfonyl)pyrrolidin-3-yl]methyl}pyrrolidin-3-yl]methyl}-1,2,4-oxadiazol-3-yl)-3-(propan-2-yl)-1H-indazole]
6 | 56 | 16.3 | 27.4 | CC(=O)N1CCC[C@H]1CN1CC[C@@H](Cc2nc(-n3nc(C(C)C)c4cccc(F)c43)no2)C1 [Example 509, 1-[(2S)-2-{[(3S)-3-({3-[7-fluoro-3-(propan-2-yl)-1H-indazol-1-yl]-1,2,4-oxadiazol-5-yl}methyl)pyrrolidin-1-yl]methyl)pyrrolidin-1-yl]ethanone]
7 | 93 | 6.9 | < 20 | CC(C)c1nn(-c2noc(C3CC(NC4CCOCC4)C3)n2)c2c(F)cccc12 (stereo not drawn) [Example 595, N-(3-{3-[7-fluoro-3-(propan-2-yl)-1H-indazol-1-yl]-1,2,4-oxadiazol-5-yl}cyclobutyl)tetrahydro-2H-pyran-4-amine]
8 | 101 | 2.8 | 12.6 | CC(=O)N1CCC(CN[C@H]2C[C@@H](c3nc(-n4nc(C(C)C)c5cccc(F)c54)no3)C2)CC1 [Example 590, 1-(4-{[(cis-3-{3-[7-fluoro-3-(propan-2-yl)-1H-indazol-1-yl]-1,2,4-oxadiazol-5-yl}cyclobutyl)amino]methyl]piperidin-1-yl)ethanone]
9 | 121 | 17.3 | < 20 | CCC(C)c1nn(-c2noc(C3CCN(C4CCN(C(=O)CO)CC4)CC3)n2)c2c(F)cccc12 (stereo not drawn) [Example 528, 1-(4-{3-[3-(butan-2-yl)-7-fluoro-1H-indazol-1-yl]-1,2,4-oxadiazol-5-yl}-1,4′-bipiperidin-1′-yl)-2-hydroxyethanone]
10 | 109 | 8.9 | 33.3 | CC(=O)N1CCC(N2CCC(F)(c3nc(-n4nc(C(C)C)c5cccc(F)c54)no3)CC2)CC1 [Example 561, 1-(4-fluoro-4-{3-[7-fluoro-3-(propan-2-yl)-1H-indazol-1-yl]-1,2,4-oxadiazol-5-yl}-1,4′-bipiperidin-1′-yl)ethanone]
11 | 100 | 3.7 | < 20 | CC(C)c1nn(-c2noc(C3CCN([C@H]4[C@@H]5CCC[C@H]4CN(C(=O)CO)C5)CC3)n2)c2c(F)cccc12 [Example 536, 1-[(9-syn)-9-(4-{3-[7-fluoro-3-(propan-2-yl)-1H-indazol-1-yl]-1,2,4-oxadiazol-5-yl}piperidin-1-yl)-3-azabicyclo[3.3.1]non-3-yl]-2-hydroxyethanone]
12 | 76 | 2.4 | < 20 | CCc1nn(-c2noc(C3CCN(C4(C)CCN(C(=O)CO)CC4)CC3)n2)c2c(F)cccc12 [Example 538, 1-{4-[3-(3-ethyl-7-fluoro-1H-indazol-1-yl)-1,2,4-oxadiazol-5-yl]-4′-methyl-1,4′-bipiperidin-1′-yl}-2-hydroxyethanone]
13 | 90 | 3.1 | < 20 | CC(=O)NCCCN[C@H]1C[C@@H](c2nc(-n3nc(C(C)C)c4cccc(F)c43)no2)C1 [Example 566]
14 | 24 | 2.9 | < 20 | O=C(CO)N1CCC(N2CCC(c3nc(-n4nc(C5CC5)c5cccc(F)c54)no3)CC2)CC1 [Example 523, 1-{4-[3-(3-cyclopropyl-7-fluoro-1H-indazol-1-yl)-1,2,4-oxadiazol-5-yl]-1,4′-bipiperidin-1′-yl}-2-hydroxyethanone]
15 | 46 | 2.8 | < 20 | CC(C)c1nn(-c2noc(C[C@H]3CCN(C[C@H]4CCN(S(C)(=O)=O)C4)C3)n2)c2c(F)cccc12 [Example 506, 7-fluoro-1-(5-{[(3R)-1-{[(3R)-1-(methylsulfonyl)pyrrolidin-3-yl]methyl}pyrrolidin-3-yl]methyl}-1,2,4-oxadiazol-3-yl)-3-(propan-2-yl)-1H-indazole]
16 | 84 | 5.9 | < 20 | CCc1nn(-c2noc(C3CCN(C[C@@H]4CCCN4C(=O)CO)CC3)n2)c2c(F)cccc12 [Example 583, 1-[(2S)-2-({4-[3-(3-ethyl-7-fluoro-1H-indazol-1-yl)-1,2,4-oxadiazol-5-yl]piperidin-1-yl}methyl)pyrrolidin-1-yl]-2-hydroxyethanone]
17 | 113 | 2.3 | < 20 | COCCNC1CC(c2nc(-n3nc(C(C)C)c4cccc(F)c43)no2)C1 (stereo not drawn) [Example 605, 3-{3-[7-fluoro-3-(propan-2-yl)-1H-indazol-1-yl]-1,2,4-oxadiazol-5-yl}-N-(2-methoxyethyl)cyclobutanamine]
18 | 52 | 5.5 | < 20 | CC(=O)N1CC[C@H](CN2CC[C@H](Cc3nc(-n4nc(C(C)C)c5cccc(F)c54)no3)C2)C1 [Example 505, 1-[(3R)-3-{[(3R)-3-({3-(7-fluoro-3-(propan-2-yl)-1H-indazol-1-yl]-1,2,4-oxadiazol-5-yl}methyl)pyrrolidin-1-yl]methyl}pyrrolidin-1-yl]ethanone]
19 | 72 | 6.1 | < 20 | CC(=O)N1CC[C@H](CN2CC[C@@H](Cc3nc(-n4nc(C(C)C)c5cccc(F)c54)no3)C2)C1 [Example 517, 1-[(3R)-3-{[(3S)-3-({3-[7-fluoro-3-(propan-2-yl)-1H-indazol-1-yl]-1,2,4-oxadiazol-5-yl}methyl)pyrrolidin-1-yl]methyl}pyrrolidin-1-yl]ethanone]
20 | 78 | 2.9 | < 20 | CCc1nn(-c2noc(C3CCN(C4(C)CCN(S(C)(=O)=O)CC4)CC3)n2)c2c(F)cccc12 [Example 492, 4-[3-(3-ethyl-7-fluoro-1H-indazol-1-yl)-1,2,4-oxadiazol-5-yl]-4′-methyl-1′-(methylsulfonyl)-1,4′-bipiperidine]
21 | 54 | 3.7 | < 20 | CC(C)c1nn(-c2noc(C[C@@H]3CCN(C4CCN(S(C)(=O)=O)CC4)C3)n2)c2c(F)cccc12 [Example 508, 7-fluoro-1-[5-({(3S)-1-[1-(methylsulfonyl)piperidin-4-yl]pyrrolidin-3-yl}methyl)-1,2,4-oxadiazol-3-yl]-3-(propan-2-yl)-1H-indazole]
22 | 85 | 5.1 | < 20 | CC(C)c1nn(-c2noc(C[C@@H]3CCN(C[C@H]4CCN(C(=O)CO)C4)C3)n2)c2c(F)cccc12 [Example 550, 1-[(3R)-3-{[(3S)-3-({3-[7-fluoro-3-(propan-2-yl)-1H-indazol-1-yl]-1,2,4-oxadiazol-5-yl}methyl)pyrrolidin-1-yl]methyl}pyrrolidin-1-yl]-2-hydroxyethanone]

Row | Compound | Emax (human 5-HT4b receptor) [%] | EC50 (human 5-HT4b receptor) [nM] | IC50 [1] [nM]
23 | CC(=O)N1CCC(N2C3CCC2CC(c2nc(-n4nc(C(C)C)c5cccc(F)c54)no2)C3)CC1 (stereo not drawn) [Example 419, 1-{4-[3-{3-[7-fluoro-3-(propan-2-yl)-1H-indazol-1-yl]-1,2,4-oxadiazol-5-yl}-8-azabicyclo[3.2.1]oct-8-yl]piperidin-1-yl}ethanone] | 110 | 10.4 | 63.8
